Patent publication US6194581A, “Substituted pyridines useful as modulators of acetylcholine receptors” (Merck & Co., Inc., priority 1998, dated 2001)
Structures can show the parent of a compound that is named as a salt. Where two headings read alike, the source gives them in different places.

Key:
[1] = molecular target: T1, nicotinic acetylcholine receptor (Rattus norvegicus, UniProt P09483+P12390); assay: 3H-nicotine binding/displacement, rat cerebral membranes
T1 construct: Synaptic membranes were prepared by homogenizing the cortical tissue; from tissue; host or cells: cerebral cortex synaptic membranes of male Sprague-Dawley rats
Method: ^3 H-Nicotine binding to rat cerebral membranes was performed according to modifications of the method of Flyn and Mash (J. Neurochem. 47:1948 (1986)). ^3 H-Nicotine (80 ci/mmol; New England Nuclear Corporation, Boston, Mass.) was used as the ligand for nicotinic acetylcholine receptor binding assays. All other reagents were purchased from the Sigma Chemical Co. (St. Louis, Mo.).
Male Sprague-Dawley rats (250-400 gm) were sacrificed by decapitation, the brains removed and the cerebral cortex dissected on ice. Synaptic membranes were prepared by homogenizing the cortical tissue in 20 volumes of ice-cold modified Tris buffer (50 mM Tris pH 7.4, 120 mM NaCl, 5 mM KCl, 2 mM EDTA, 1 mM PMSF) with a polytron (20 sec at setting 5-6) followed by centrifugation (15 min at 25,000×g) at 4° C. The resultant pellet was rehomogenized and centrifuged twice. The final pellet was resuspended in ice-cold assay buffer (50 mM Tris pH 7.4, 120 mM NaCl, 5 mM KCl, 2 mM CaCl2, 1 MM MgCl2) at a concentration of membrane equivalent to 1 gm wet weight cortex per 10 ml buffer. After protein determination the final membrane preparation was diluted with buffer to 3 mg protein/ml. This membrane preparation was used in either the fresh state or frozen (-70° C.) then thawed.
The binding assay is performed manually using 96-well plates, or using a Biomek automated work station (Beckman Instrument Co.). ^3 H-Nicotine was diluted in assay buffer to give a final concentration of 1.9 nM. The Biomek automated work station was programmed to automatically transfer 750 μl of assay buffer with ^3 H-nicotine, 230 μl of membrane preparation and 20 μl of solution containing the compound of interest in assay buffer, DMSO, ethanol:DMSO (1:1) or appropriate vehicle to the 96-well plate. Atropine was added to the incubation buffer at a final concentration of 3 μM to block binding to muscarinic acetylcholine receptor sites. The plates were maintained on ice for 60 min and the tissue-bound radioactivity was separated from the free by rapid filtration in a Brandel Harvester onto GF/C filters presoaked in 0.5% polyethyleneimine for at least 2 hr. The filters were washed with 4×2 ml of ice-cold assay buffer and filters were transferred to vials to which 4 ml of scintillation cocktail was added. The radioactivity was measured in a LS-6500 Beckman Liquid Scintillation Counter in an autodpm mode. Data were analyzed by log-logit transformation or non-linear regression analysis (e.g., employing GraphPad Prism, available from GraphPad Software, San Diego, Calif.) to give IC50 values. Non-specific binding was defined by 10 μM cytisine.

[2] = molecular target: muscarinic acetylcholine receptors; assay: 3H-QNB (quinuclidinyl benzilate) displacement, rat cerebral membranes; format: binding
[3] = tested on: rat olfactory tubercles (3H-dopamine release); format: cell-based
Method: (§1) Measurement of ^3 H-dopamine release from rat striatal slices was performed according to the method of Sacaan et al. (J. Neurochem. 59:245 (1992)). Male Sprague-Dawley rats (250-300 g) were decapitated and the striata or olfactory tubercles dissected quickly on a cold glass surface. The tissue was chopped to a thickness of 300 μm with a McIlwain tissue chopper. After chopping again at right angles the tissue was dispersed and incubated for 10 min. at 37° C. in oxygenated Kreb's buffer. ^3 H-Dopamine (40 Ci/mmol, NEN- Dupont, Boston, Mass.) was added (50 nM) and the tissue was incubated for 30 min. in Kreb's buffer containing 10 μM pargyline and 0.5 mM ascorbic acid. Aliquots of the minced tissue were then transferred to chambers of a Brandel Superfusion system in which the tissue was supported on Whatman GF/B filter discs. The tissue was then superfused with buffer at a constant flow rate of 0.3 ml/min by means of a Brandel peristaltic pump. The perfusate was collected in plastic scintillation vials in 3-min fractions, and the radioactivity was estimated by scintillation spectrophotometry. The superfusate for the first 120 min was discarded. After two baseline fractions had been collected, the superfusion buffer was switched to fresh buffer with or without compound of interest. At the end of the experiment the filter and the tissue were removed, and the radiolabeled neurotransmitter content was estimated after extraction into scintillation fluid. The fractional effiux of radiolabeled neurotransmitter was estimated as the amount of radioactivity in the perfusate fraction relative to the total amount in the tissue.
(§2) The results of studies of the effects of an invention compound (as compared to the effect of nicotine) on the release of neurotransmitters from rat brain slices are presented in Table II. The results presented in the Table are expressed as the percent fractional release.

[4] = tested on: rat striatal slices (3H-dopamine release); format: cell-based
Method: as §1, §2

[5] = tested on: rat hippocampus slices (3H-norepinephrine release); format: cell-based
Method: as §1
(§3) Following essentially the same procedure as set forth in the preceding paragraph, the amount of ^3 H-norepinephrine released from rat hippocampus, thalamus and prefrontal cortex slices superfused with buffer containing (or lacking) compounds of interest was also measured.
as §2

[6] = tested on: rat prefrontal cortex slices (3H-norepinephrine release); format: cell-based
Method: as §1, §3, §2

[7] = tested on: rat thalamus slices (3H-norepinephrine release); format: cell-based
Method: as §1, §3, §2

[8] = displacement of 1.9 nM 3H-nicotine, rat cerebral membranes, 3 μM atropine, read-out: IC50, Nicotine
[9] = displacement of 60 pM 3H-QNB, rat cerebral membranes
[10] = rat olfactory tubercles, compound concentration not given
[11] = rat striatum slices, compound concentration not given
[12] = rat hippocampus slices, compound concentration not given
[13] = rat prefrontal cortex slices, compound concentration not given
[14] = rat thalamus slices, compound concentration not given

T1 sequence (P09483 31-630): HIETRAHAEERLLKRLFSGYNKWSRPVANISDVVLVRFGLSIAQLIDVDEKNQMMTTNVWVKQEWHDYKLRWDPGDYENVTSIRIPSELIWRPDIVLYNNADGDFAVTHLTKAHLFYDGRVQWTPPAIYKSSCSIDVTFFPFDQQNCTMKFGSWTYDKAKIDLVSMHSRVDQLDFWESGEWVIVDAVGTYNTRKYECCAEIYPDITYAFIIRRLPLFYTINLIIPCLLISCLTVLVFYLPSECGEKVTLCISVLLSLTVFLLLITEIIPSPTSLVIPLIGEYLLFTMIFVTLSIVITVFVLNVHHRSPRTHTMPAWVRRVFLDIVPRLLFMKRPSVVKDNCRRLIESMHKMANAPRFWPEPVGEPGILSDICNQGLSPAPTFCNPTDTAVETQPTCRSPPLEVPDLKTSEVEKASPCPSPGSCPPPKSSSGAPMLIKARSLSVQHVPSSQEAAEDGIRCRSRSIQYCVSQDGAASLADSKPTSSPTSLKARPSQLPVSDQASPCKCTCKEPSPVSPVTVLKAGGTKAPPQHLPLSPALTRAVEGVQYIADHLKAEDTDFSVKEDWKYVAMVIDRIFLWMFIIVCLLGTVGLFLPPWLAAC
T1 sequence (P12390 26-500 limits assumed): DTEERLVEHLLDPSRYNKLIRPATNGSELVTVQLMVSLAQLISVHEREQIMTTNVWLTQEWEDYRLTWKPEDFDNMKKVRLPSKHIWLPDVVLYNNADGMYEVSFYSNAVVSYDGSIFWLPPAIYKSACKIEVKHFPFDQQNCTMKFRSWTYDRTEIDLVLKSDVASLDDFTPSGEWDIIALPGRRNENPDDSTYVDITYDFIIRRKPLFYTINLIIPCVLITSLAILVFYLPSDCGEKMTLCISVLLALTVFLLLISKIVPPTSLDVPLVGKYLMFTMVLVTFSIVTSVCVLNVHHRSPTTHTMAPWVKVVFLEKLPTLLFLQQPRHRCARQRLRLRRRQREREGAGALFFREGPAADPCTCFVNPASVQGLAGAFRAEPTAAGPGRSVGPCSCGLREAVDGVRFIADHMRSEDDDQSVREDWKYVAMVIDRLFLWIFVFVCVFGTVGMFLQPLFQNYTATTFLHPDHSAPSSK

Oc1ccc(-c2cncc(CN3CCCC3)c2)cc1Cl [5-(4-Hydroxy-3-chlorophenyl)-3-(N-pyrrolidinomethyl)pyridine]
IC50 [1, 8]: 0.043 µM
IC50 [2, 9]: > 10 µM
3H-Dopamine, Olfactory Tubercles, percent fractional release [3, 10]: 8.75%
3H-Dopamine, Striatum, percent fractional release [4, 11]: 6.00%
3H-Norepinephrine, Hippocampus, percent fractional release [5, 12]: 1.91%
3H-Norepinephrine, Prefrontal Cortex, percent fractional release [6, 13]: 1.82%
3H-Norepinephrine, Thalamus, percent fractional release [7, 14]: 1.44%

CN(CCCc1ccccc1)Cc1cccnc1 [N-Methyl-N-phenylpropyl-3-picolylamine]
IC50 [1, 8]: 34 µM
IC50 [2, 9]: 36 µM

c1cncc(CNC2CC2)c1 [N-Cyclopropyl-3-picolylamine]
IC50 [1, 8]: 40 µM
IC50 [2, 9]: > 100 µM

CNC(C)c1cccnc1 (stereo not drawn) [α-Methyl-N-methyl-3-picolylamine]
IC50 [1, 8]: 3.6 µM
IC50 [2, 9]: > 100 µM

C#Cc1cncc(CN2CCCC2)c1 [5-ethynyl-3-(N-pyrrolidinomethyl)pyridine]
IC50 [1]: 0.041 µM
IC50 [2]: > 100 µM
3H-Dopamine, Olfactory Tubercles, percent fractional release [3, 10]: 0.91%
3H-Dopamine, Striatum, percent fractional release [4, 11]: 2.09%
3H-Norepinephrine, Hippocampus, percent fractional release [5, 12]: 0.97%
3H-Norepinephrine, Prefrontal Cortex, percent fractional release [6, 13]: 0.84%
3H-Norepinephrine, Thalamus, percent fractional release [7, 14]: 0.67%

Oc1ccc(-c2cncc(CN3CCCC3)c2)cc1 [5-(4-hydroxyphenyl)-3-(N-pyrrolidinomethyl)pyridine]
IC50 [1, 8]: 0.082 µM
IC50 [2, 9]: > 10 µM
3H-Dopamine, Olfactory Tubercles, percent fractional release [3, 10]: 6.12%
3H-Dopamine, Striatum, percent fractional release [4, 11]: 4.32%
3H-Norepinephrine, Hippocampus, percent fractional release [5, 12]: 1.06%
3H-Norepinephrine, Prefrontal Cortex, percent fractional release [6, 13]: 1.24%
3H-Norepinephrine, Thalamus, percent fractional release [7, 14]: 2.36%

CC(C)NC(C)c1cccnc1 (stereo not drawn) [α-Methyl-N-isopropyl-3-picolylamine]
IC50 [1, 8]: 19 µM
IC50 [2, 9]: > 100 µM

CN(Cc1cccnc1)C1CC1 [N-Methyl-N-cyclopropyl-3-picolylamine]
IC50 [1, 8]: 16 µM
IC50 [2, 9]: > 100 µM

CC(NC1CC1)c1cccnc1 (stereo not drawn) [α-Methyl-N-cyclopropyl-3-picolylamine]
IC50 [1, 8]: > 100 µM
IC50 [2, 9]: > 100 µM

CC(c1cccnc1)N(C)C (stereo not drawn) [α-Methyl-N,N-dimethyl-3-picolylamine]
IC50 [1, 8]: 1.9 µM
displacement of ligand with 100 μM of compound (Quinuclidinyl benzilate) ([2]; 100 μM compound, 3H-QNB, rat cerebral membranes): Less than 20%

c1ccc(CCCNCc2cccnc2)cc1 [N-Phenylpropyl-3-picolylamine]
IC50 [1, 8]: 20 µM
IC50 [2, 9]: 29 µM

c1ccc(-c2cncc(CN3CCCC3)c2)cc1 [5-Phenyl-3-(N-pyrrolidinomethyl)pyridine]
IC50 [1, 8]: 0.53 µM
IC50 [2, 9]: 11.2 µM
3H-Dopamine, Olfactory Tubercles, percent fractional release [3, 10]: 3.68%
3H-Dopamine, Striatum, percent fractional release [4, 11]: 2.48%
3H-Norepinephrine, Hippocampus, percent fractional release [5, 12]: 0.74%
3H-Norepinephrine, Prefrontal Cortex, percent fractional release [6, 13]: 1.43%
3H-Norepinephrine, Thalamus, percent fractional release [7, 14]: 1.42%

c1ccc(-c2cncc(CN3CCC3)c2)cc1 [5-Phenyl-3-(N-azetidinomethyl)pyridine fumarate]
IC50 [1, 8]: 1.2 µM
IC50 [2, 9]: 6 µM

CN1CCCC1c1cccnc1 (stereo not drawn) [Nicotine, reference compound]
3H-Dopamine, Olfactory Tubercles, percent fractional release [3]: 2.7 ± 0.4
3H-Dopamine, Striatum, percent fractional release [4]: 2.3 ± 0.7
3H-Norepinephrine, Hippocampus, percent fractional release [5]: 8.2 ± 1.5
3H-Norepinephrine, Prefrontal Cortex, percent fractional release [6]: 2.2 ± 0.2
3H-Norepinephrine, Thalamus, percent fractional release [7]: 1.7
